The values below come from US7585895B2, “Therapeutic substituted cyclopentanes” (Allergan, Inc., priority 2005, dated 2009).

What all share (type): in vivo
Data set [1] is described as follows: Dog intraocular pressure (Max. ΔIOP). The settings on record: Canis lupus familiaris, Conc. 0.1 g/100 mL.
Data set [2] can be described thus: Dog ocular hyperemia. The settings on record: Conc. 0.1 g/100 mL.
Data set [3] is described as follows: Monkey intraocular pressure (Max. ΔIOP). Particulars: Primates, Conc. 0.1 g/100 mL.
Data set [4] is described as follows: Rabbit ocular hyperemia. Particulars: Conc. 0.1 g/100 mL.

For the compound `CCCCCCc1ccc([C@@H]2[C@@H](C/C=C\CCCC(=O)O)[C@H](Cl)C[C@H]2O)cc1` [compound 6], the change in vivo at 1000 µg/mL was -43% in data set [1] and 32% in data set [3]. Further, the “DOG Max. hpyeremia” value in data set [2] stood at 0.6. Also, the “RABBIT Max. hyperemia” value in data set [4] is 0.25.

With `CCCCCCc1ccc([C@@H]2[C@@H](C/C=C\CCCC(=O)OC(C)C)[C@H](Cl)C[C@H]2O)cc1` [compound 7], the change in vivo at 1000 µg/mL was determined as 20% in data set [1] and 21% in data set [3]. Moreover, the “DOG Max. hpyeremia” value in data set [2] stood at 0.5.
